Assay results taken from patent publication US7169777B2, “Melanocortin receptor agonists” (Eli Lilly and Company, priority 2001, dated 2007).
Where a name gives a salt, the structure may show the parent alone. Read-outs that look alike come from different tables or passages of the source.

How the values were obtained:
MC4 [1] = target: T1, MC4 (Homo sapiens, UniProt P32245); test: Melanocortin receptor whole cell cAMP accumulation assay (MC4R); type: cell-based; parameters: expressed in transfected cells; host or cells: HEK 293 (stably transfected); settings: for Relative Eff.: relative efficacy compared to NDP-alpha-MSH, defined as a 100% agonist
T1 sequence (P32245 whole entry): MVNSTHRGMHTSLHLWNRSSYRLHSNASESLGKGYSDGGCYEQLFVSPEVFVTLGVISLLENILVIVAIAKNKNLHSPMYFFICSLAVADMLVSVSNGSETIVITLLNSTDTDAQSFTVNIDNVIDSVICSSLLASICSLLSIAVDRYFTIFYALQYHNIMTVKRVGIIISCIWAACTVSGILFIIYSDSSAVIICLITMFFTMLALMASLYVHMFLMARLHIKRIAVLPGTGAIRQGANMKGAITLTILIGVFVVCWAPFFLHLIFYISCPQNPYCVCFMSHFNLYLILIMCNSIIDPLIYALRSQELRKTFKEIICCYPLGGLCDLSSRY
Description: Melanocortin Receptor Whole Cell cAMP Accumulation Assay
These are serially diluted in 100% DMSO. The compound plate is further diluted 1:200 in compound dilution buffer (HBSS-092, 1 mM Ascorbic Acid, 1 mM IBMX, 0.6% DMSO, 0.1% BSA). […] Transfer 20 μl from this plate into four PET 96-well plates (all assays are performed in duplicate for each receptor).
[…] cells stably transfected with the MC3R and MC4R were grown in DMEM containing 10% FBS and 1% Antibiotic/Antimycotic Solution. On the day of the assay the cells were dislodged with enzyme free cell dissociation solution and resuspended in cell buffer (HBSS-092, 0.1% BSA, 10 mM HEPES) at 1×e6 cells/ml. Add 40 μl of cells/well to the PET 96-well plates containing 20 ul diluted compound and control. Incubate @ 37° C. in a waterbath for 20 minutes. Stop the assay by adding 50 μl Quench Buffer (50 mM Na Acetate, 0.25% Triton X-100).
Radioligand binding assays were run in SPA buffer (50 mM Sodium Acetate, 0.1% BSA). The beads, antibody and radioligand were diluted in SPA buffer to provide sufficient volume for each 96-well plate. […] The plates were counted in a Wallac MicroBeta counter after a 12-hour incubation.
The data was converted to pmoles cAMP using a standard curve assayed under the same conditions. The data was analyzed using Activity Base software to generate agonist potencies (EC50) and percent relative efficacy data to NDP-aMSH.

MC4 [2] = target: T1, MC4; test: Radioligand binding assay (125I-NDP-alpha-MSH competition, SPA, membranes of transfected HEK 293 cells); parameters: expressed in transfected cells; host or cells: HEK 293 (stably transfected), membrane preparation
Description: HEK 293 cells transfected with human or rat melanocortinin receptors are grown either as adherent monolayers or suspension culture. Monolayer cells are grown in roller bottle cultures at 37° C. and 5% CO2/air atmosphere in a 3:1 mixture of Dulbecco's modified Eagle medium (DMEM) and Ham's F12 containing 25 mM […], 100 units/ml penicillin G, 100 microgram/ml streptomyocin, 250 nanogram/ml amphoterin B, 300 microgram/ml genticin and supplemented with 5% fetal bovine serum. […] Cells are harvested by centrifugation, washed in PBS, and pellets are stored frozen at −80° C. until membrane preparations.
The cell pellets are resuspended in 10 volumes of membrane preparation buffer (i.e., 1 g pellet to 10 ml buffer) having the following composition: 50 mM Tris pH 7.5 @ 4° C., 250 mM sucrose, 1 mM MgCl2, Complete® EDTA-free protease inhibitor tablet (Boehringer Mannheim), and 24 micrograms/ml DNase I (Sigma, St. Louis, Mo.). The cells are homogenized with a motor-driven dounce using 20 strokes, and the homogenate is centrifuged at 38,000×g at 4° C. for 40 minutes. The pellets are resuspended in membrane preparation buffer at a concentration of 2.5–7.5 mg/ml and 1 milliliter aliquots of membrane homogenates are quickly frozen in liquid nitrogen and then stored at −80° C.
Solutions of a compound of formula I (300 picomolar to 30 micromolar) or unlabelled NDP-alpha-MSH (1 picomolar to 100 nanomolar) are added to 150 microliters of membrane binding buffer to yield final concentrations (listed in parantheses). The membrane binding buffer has the following composition: 25 mM HEPES pH 7.5; 10 mM CaCl2; 0.3% BSA). […] Additionally, fifty microliters of SPA beads (5 mg/ml) are added and the resulting mixture is agitated briefly and incubated for 10 hours at room temperature. The radioactivity is quantified in a Wallac Trilux Microplate Scintillation counter. IC50 values obtained in competition assays are converted to affinity constants (Ki values) using the Cheng-Prusoff equation: Ki=IC50/(1+D/Kd).

rodents = settings: injected intracerebroventricularly (ICV); NPY, ob/ob, agouti, fasted models; cited from earlier work
[3] = MC4 agonist potency, read-out: MC4 EC50
[4] = 125I-NDP-alpha-MSH competition, Ki from IC50 by Cheng-Prusoff, read-out: MC4 Binding Ki

| Molecule | EC50 (MC4 [1]) | Relative Eff. (MC4 [1]) | Ki (MC4 [2]) | EC50 (MC4 [1]; [3]) | Ki (MC4 [2]; [4]) | food intake (rodents) |
| --- | --- | --- | --- | --- | --- | --- |
| O=C(CC1NCc2ccccc21)N[C@H](Cc1ccc(Cl)cc1)C(=O)N1CCN(C(CC2CCCCC2)CN2CCOCC2)CC1 (mixture of isomers) [Example N38, N-{1-(4-chloro-benzyl)-2-[4-(1-cyclohexylmethyl-2-morpholine-4-yl-ethyl)-piperazin-1-yl]-2-oxo-ethyl}-2-(2,3-dihydro-1H-isoindol-1-yl)-acetamide tri(trifluoroacetate) salt] | 69.3 nM | 115.6 | 10 nM | – | – | – |
| SHU-9119 | – | – | – | – | – | reverses this effect and can induce hyperphagia |
| melanotanin-II [MT-II] | – | – | – | – | – | reduces food intake |

Now from value to molecule, other results behind:

| EC50 (MC4 [1]) | Relative Eff. (MC4 [1]) | Ki (MC4 [2]) | EC50 (MC4 [1]; [3]) | Ki (MC4 [2]; [4]) | Molecule | food intake (rodents) |
| --- | --- | --- | --- | --- | --- | --- |
| – | 102.6 | – | 8.4 nM | 11.3 nM | CC(C)CN(CC(C1CCCCC1)N1CCN(C(=O)C(Cc2ccc(Cl)cc2)NC(=O)CC2NCc3ccccc32)CC1)S(C)(=O)=O (single isomer, unassigned) [Example N71, N-(1-(4-Chloro-benzyl)-2-{4-[1-cyclohexyl-2-(isobutyl-methanesulfonyl-amino)-ethyl]-piperazin-1-yl}-2-oxo-ethyl)-2-(2,3-dihydro-1H-isoindol-1-yl)-acetamide dihydrochloride salt] | – |
| – | 108.6 | – | 127 nM | 18.1 nM | CCN(CC)CC(c1ccccc1F)N1CCN(C(=O)[C@@H](Cc2ccc(Cl)cc2)NC(=O)[C@H]2Cc3ccccc3C(C)(C)N2)CC1 (some centres unmarked) [Compd 814] | – |
| – | 67.0 | – | 76.7 nM | 5.8 nM | CC(C)CC(CC(C)C)N1CCN(C(=O)[C@@H](Cc2ccc(Cl)cc2)NC(=O)CC2NCc3ccccc32)CC1.Cl.Cl (some centres unmarked) [Compd 3251] | – |
